Test results taken from publication PMC6469685 (Cell, 2018).

What was measured:
Assay in all cases: NBD fluorescence titration
Assay type in all cases: binding
[1] = target: T1, Aster-A261–576 (ASTER domain of Aster-A) (Mus musculus, UniProt Q8VEF1)
T1 sequence (Q8VEF1 261-576): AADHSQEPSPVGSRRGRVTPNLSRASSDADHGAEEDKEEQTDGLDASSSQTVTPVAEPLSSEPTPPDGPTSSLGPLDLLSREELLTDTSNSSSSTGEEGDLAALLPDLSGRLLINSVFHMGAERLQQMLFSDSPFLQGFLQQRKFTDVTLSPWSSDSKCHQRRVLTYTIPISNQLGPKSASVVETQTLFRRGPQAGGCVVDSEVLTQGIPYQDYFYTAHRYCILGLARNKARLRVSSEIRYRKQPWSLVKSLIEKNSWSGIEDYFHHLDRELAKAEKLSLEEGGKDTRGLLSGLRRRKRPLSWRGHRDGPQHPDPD

[2] = target: Aster-C206–528 (ASTER domain of Aster-C) (Mus musculus, UniProt Q8CI52)
[3] = target: T2, StARD1 (StAR; HMBP-3C-STAR.66–285) (Homo sapiens, UniProt P49675); settings: labelled compound
T2 sequence (P49675 66-285): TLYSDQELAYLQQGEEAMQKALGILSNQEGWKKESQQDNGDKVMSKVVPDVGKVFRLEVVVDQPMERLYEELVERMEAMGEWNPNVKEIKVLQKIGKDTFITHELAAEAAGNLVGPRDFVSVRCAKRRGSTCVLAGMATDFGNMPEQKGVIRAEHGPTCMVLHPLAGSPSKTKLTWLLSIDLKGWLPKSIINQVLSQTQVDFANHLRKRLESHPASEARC

Sequence of Aster-C206–528 (ASTER domain of Aster-C) (Q8CI52 206-528): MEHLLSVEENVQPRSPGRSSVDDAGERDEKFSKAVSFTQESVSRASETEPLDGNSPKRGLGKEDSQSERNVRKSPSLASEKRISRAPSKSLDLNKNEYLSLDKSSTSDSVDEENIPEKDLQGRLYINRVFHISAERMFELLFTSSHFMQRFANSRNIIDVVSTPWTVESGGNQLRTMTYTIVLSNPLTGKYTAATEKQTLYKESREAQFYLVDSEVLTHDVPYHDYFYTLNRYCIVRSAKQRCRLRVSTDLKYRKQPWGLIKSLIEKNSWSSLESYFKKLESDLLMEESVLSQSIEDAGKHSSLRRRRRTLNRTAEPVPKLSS

C[C@H](CNc1ccc([N+](=O)[O-])c2nonc12)[C@H]1CC[C@H]2[C@@H]3CC=C4C[C@@H](O)CC[C@]4(C)[C@H]3CC[C@]12C [22-NBD-cholesterol]
Kd [1]: < 100 nM | Kd [2]: < 100 nM | Kd [3]: Comparison of NBD-cholesterol binding to Aster-A, Aster-B and StarD1
